How the values were obtained:
[1] = test system: chronic diarrhea in patient with SBS; assay: Case report: SBS patient with chronic diarrhea (Example 1); settings: same patient, attempted for 12 years before crofelemer
[2] = in vivo, cited from earlier work

Row | Molecule | effectiveness in relieving diarrhea symptoms (earlier treatments) [1] | systemic bioavailability ([2]; human) | absorption from the GI tract [2] | tolerability [2]
1 | CN1[C@@H]2CC[C@H]1C[C@@H](OC(=O)C(CO)c1ccccc1)C2 (stereo partly shown) [atropine] | None of which were effective | – | – | –
2 | CN(C)C(=O)C(CCN1CCC(O)(c2ccc(Cl)cc2)CC1)(c1ccccc1)c1ccccc1 [loperamide] | None of which were effective | – | – | –
3 | crofelemer | – | virtually no systemic bioavailability | little or no absorption | well tolerated
4 | CCOC(=O)C1(c2ccccc2)CCN(CCC(C#N)(c2ccccc2)c2ccccc2)CC1 [diphenoxylate] | None of which were effective | – | – | –
5 | COc1ccc2c3c1O[C@H]1[C@@H](O)C=C[C@H]4[C@@H](C2)N(C)CC[C@@]341 [codeine] | None of which were effective | – | – | –
